{
  "source": "paper PMC10745054",
  "about": "“A Synthetic Model of the Mucosa for Oral Penetration Studies” (Membranes, 2023)",
  "key": {"[1]": {"test": "In vitro permeation through porcine skin, Franz diffusion cell", "assay_type": "in vitro ADME", "details": "after 4 h", "from_the_text": "Three types of membranes were used in this study, a synthetic membrane and two biological membranes, porcine skin and porcine sublingual oral mucosa. […] The biological membranes were a porcine sublingual mucosa and porcine skin. The porcine tongues with sublingual mucosa were supplied by the Faculty of Pharmacy of the University of Barcelona from the Hospital de Bellvitge campus according to the protocols of the ethics committee and with the supervision of the above institution. The mucous membrane was dermatomed to a thickness of 500–700 µm (Dermatome GA630, Aesculap, Tuttlingen, Germany), and portions of the sublingual oral mucosa were obtained to fit in the Franz diffusion cells. In addition, to determine the specific thickness, each mucosal portion was measured with a digital micrometer (MAHR, Göttingen, Germany). […]\n(§1) Next, a pseudoinfinite dose (300 µL) of the drug or biocidal solution was applied to each Franz cell. […] The permeation of three biocides, Fungitrol (FUN), propiconazole (PRO), and permethrin (PER), was also determined. […]\nThe release of each compound was evaluated by determining the cumulative amount permeated (Qn, μg/cm^2), which corresponds to the cumulative amount of the substance quantified in the receiving liquid per unit of surface area of the applied sample [31]. […]"}, "[2]": {"test": "In vitro permeation through porcine sublingual mucosa (intact or modified by formulation), Franz diffusion cell", "assay_type": "in vitro ADME", "from_the_text": "(§2) Three types of membranes were used in this study, a synthetic membrane and two biological membranes, porcine skin and porcine sublingual oral mucosa. […] The biological membranes were a porcine sublingual mucosa and porcine skin. The porcine tongues with sublingual mucosa were supplied by the Faculty of Pharmacy of the University of Barcelona from the Hospital de Bellvitge campus according to the protocols of the ethics committee and with the supervision of the above institution. The mucous membrane was dermatomed to a thickness of 500–700 µm (Dermatome GA630, Aesculap, Tuttlingen, Germany), and portions of the sublingual oral mucosa were obtained to fit in the Franz diffusion cells. In addition, to determine the specific thickness, each mucosal portion was measured with a digital micrometer (MAHR, Göttingen, Germany). Porcine skin was obtained from the unboiled back of a Landrace large white pig (3 months old, weight around 40 kg) (supplied by the Department of Cardiology of the Clinic Hospital of Barcelona). Animal handling was approved by the Institutional Review Board and Ethics Committee of Institut d’Investigacions Biomèdiques August Pi i Sunyer (IDIBAPS), and the management of the animals conformed to the Guide for the Care and Use of Laboratory Animals. Porcine skin was dermatomed to a thickness of 500 ± 50 µm (Dermatome GA630, Aesculap, Germany) and stored at −20 °C until further use.\nThe Nuclepore synthetic membrane, sublingual mucosa, and porcine skin dermatomed to a thickness of 500–700 µm were used to evaluate the permeation of drug/biocidal compounds. These studies were performed using a Franz vertical diffusion cell (Lara Spiral, Couternon, France) as described before. The receiving fluid (RF) used was PBS:EtOH (1:1) for drug permeation and EtOH:H2O (75:25) for biocide permeation, assuring sink conditions of the compounds.\nNext, a pseudoinfinite dose (300 µL) of the drug or biocidal solution was applied to each Franz cell. Solutions were applied in triplicate to determine the kinetic parameters. […] The permeation of three biocides, Fungitrol (FUN), propiconazole (PRO), and permethrin (PER), was also determined. The biocides were dissolved in ethanol, each at a concentration of 1%.\nSamples (0.2 mL) were collected at different times (0 h, 0.5 h, 1 h, 2 h, and 4 h), and the same volume of receptor fluid was immediately added back for replacement.\n(§3) The release of each compound was evaluated by determining the cumulative amount permeated (Qn, μg/cm^2), which corresponds to the cumulative amount of the substance quantified in the receiving liquid per unit of surface area of the applied sample [31].\n(§4) The experimental Qn and % compound release data were used to construct graphs showing permeation over time. […] The model was determined with the nonlinear regression software STATGRAPHICS plus 5 (Statgraphics Technologies, Inc., The Plains, VA, USA), and the best equation was selected based on the highest correlation coefficient corrected for the number of degrees of freedom (R^2 DoFs).\nParameters were obtained from the graph. Fluxes (J, μg/cm^2/h) from the tested compounds were calculated from the slope of the linear portion of the cumulative amounts permeated through the membrane per unit surface area versus time plot. The permeability coefficients (Kp, cm/h) were obtained by dividing the J by the initial drug/biocide concentration. And Cmax represented the maxima concentration permeated for each active substance.\nAs in the previous TMWL assay, dermatomed porcine sublingual mucosa and split skin at a thickness of 500–700 µm as well as the synthetic Nuclepore membrane were used in this study."}, "[3]": {"test": "In vitro permeation through Nuclepore synthetic membrane (intact or modified by formulation), Franz diffusion cell", "assay_type": "in vitro ADME", "details": "for percent permeation: at 4 h", "from_the_text": "as §2\nThe Nuclepore synthetic membrane, sublingual mucosa, and porcine skin dermatomed to a thickness of 500–700 µm were used to evaluate the permeation of drug/biocidal compounds. These studies were performed using a Franz vertical diffusion cell (Lara Spiral, Couternon, France) as described before. […]\nas §1, §3, §4\nParameters were obtained from the graph. Fluxes (J, μg/cm^2/h) from the tested compounds were calculated from the slope of the linear portion of the cumulative amounts permeated through the membrane per unit surface area versus time plot. […]"}, "[4]": {"details": "cited from earlier work"}},
  "data": [
    {"compound": "Cn1c(=O)c2c(ncn2C)n(C)c1=O", "note": "[Caffeine]", "values": [
      {"measurement": "percent permeation", "setting": "[1]", "value": "approximately 10%"},
      {"measurement": "Permeability Coef. Kp", "setting": "[2]; MUCOSA F3: mucosa modified with formulation 3", "value": "8.3 ± 2.5 10^−3 cm/h"},
      {"measurement": "Permeability Coef. Kp", "setting": "[2]; MUCOSA F6: mucosa modified with formulation 6", "value": "49.3 ± 0.1 10^−3 cm/h"},
      {"measurement": "Permeability Coef. Kp", "setting": "[2]; MUCOSA F16: mucosa modified with formulation 16", "value": "6.4 ± 0.9 10^−3 cm/h"},
      {"measurement": "percent permeation", "setting": "[2]; mucosa modified with formulation 6 (MUC F6), at 4 h", "value": 60, "unit": "%"},
      {"measurement": "percent permeation", "setting": "[2]; mucosa modified with hydrophobic formulation 3 (MUC F3), at 4 h", "value": "approximately 10%"},
      {"measurement": "percent permeation", "setting": "[2]; mucosa modified with liposomal formulation 16 (printed MUC F6), at 4 h", "value": "approximately 10%"},
      {"measurement": "percent permeation (release)", "setting": "[2]; sublingual mucosa (MUC), at 4 h", "value": 40, "unit": "%"},
      {"measurement": "maximum permeation", "setting": "[3]; Nuclepore membrane (NP), between 0.5 and 4 h", "value": 50, "unit": "%"},
      {"measurement": "percent permeation", "setting": "[3]; Nuclepore modified with formulation 6 (NP F6)", "value": 65, "unit": "%"},
      {"measurement": "percent permeation", "setting": "[3]; Nuclepore modified with hydrophobic formulation 3 (NP F3)", "value": 40, "unit": "%"},
      {"measurement": "percent permeation", "setting": "[3]; Nuclepore modified with liposomal formulation 16 (printed NP F6)", "value": 40, "unit": "%"}
    ]},
    {"compound": "C[C@@H]1C[C@H]2[C@@H]3CCC4=CC(=O)C=C[C@]4(C)[C@@]3(F)[C@@H](O)C[C@]2(C)[C@@]1(O)C(=O)CO", "note": "[Dexametasone, dexamethasone]", "values": [
      {"measurement": "Log Ko/w (pH 7.4)", "setting": "[4]", "value": "1.8 [40]"}
    ]},
    {"compound": "O=C(c1ccccc1)c1ccc2n1CCC2C(=O)O", "note": "(centres unmarked) [Ketorolac tromethamine, ketorolac tromethamine]", "values": [
      {"measurement": "Log Ko/w (pH 7.4)", "setting": "[4]", "value": "2.3 [39]"}
    ]},
    {"compound": "CC1(C)C(C=C(Cl)Cl)C1C(=O)OCc1cccc(Oc2ccccc2)c1", "note": "(centres unmarked) [Permethrin, permethrin]", "values": [
      {"measurement": "Log Ko/w (pH 7.4)", "setting": "[4]", "value": "6.5 [44]"}
    ]},
    {"compound": "CCCC1COC(Cn2cncn2)(c2ccc(Cl)cc2Cl)O1", "note": "(centres unmarked) [Propiconazole, propiconazole]", "values": [
      {"measurement": "Log Ko/w (pH 7.4)", "setting": "[4]", "value": "3.5 [43]"}
    ]},
    {"compound": "Fungitrol", "values": [
      {"measurement": "Log Ko/w (pH 7.4)", "setting": "[4]", "value": "2.4 [42]"}
    ]}
  ]
}
